According to PMC3131604, “The Inhibitory Effect of Non-Steroidal Anti-Inflammatory Drugs (NSAIDs) on the Monophenolase and Diphenolase Activities of Mushroom Tyrosinase” (International Journal of Molecular Sciences, 2011):
Read-outs that look alike come from different tables or passages of the source.

Columns and labels:
[1] = system: B16F1 melanoma cells; conditions: cited from earlier work
[2] = molecular target: T1, mushroom tyrosinase (Agaricus bisporus, UniProt C7FF04); experiment: diphenolase activity assay of mushroom tyrosinase (L-DOPA as substrate); assay type: biochemical; conditions: for KIS, diphenolase: Lineweaver-Burk / secondary plots; for Inhibition type, diphenolase activity: Lineweaver-Burk plots; for activity at 50 µM: at 0.05 mM; for activity at 50 µM / activity at 100 µM / activity at 200 µM / activity at 500 µM / activity at 1000 µM: read-out: diphenolase activity in presence of inhibitor; for activity at 100 µM: at 0.1 mM; for activity at 500 µM: at 0.5 mM; for activity at 1000 µM: at 1.0 mM
T1 sequence (C7FF04 1-392): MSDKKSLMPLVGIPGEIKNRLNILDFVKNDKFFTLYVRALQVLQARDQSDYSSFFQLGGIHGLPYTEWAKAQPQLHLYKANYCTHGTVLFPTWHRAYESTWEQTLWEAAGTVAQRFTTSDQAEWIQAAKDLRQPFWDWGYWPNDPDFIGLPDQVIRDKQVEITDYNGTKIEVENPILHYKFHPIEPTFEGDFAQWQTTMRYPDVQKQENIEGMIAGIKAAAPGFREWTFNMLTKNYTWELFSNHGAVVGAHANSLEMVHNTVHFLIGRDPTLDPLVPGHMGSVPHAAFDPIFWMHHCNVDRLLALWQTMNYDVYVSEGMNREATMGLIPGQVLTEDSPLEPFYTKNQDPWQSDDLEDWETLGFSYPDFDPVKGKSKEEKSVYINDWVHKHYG
T1 sequence (G1K3P4 1-150 partner): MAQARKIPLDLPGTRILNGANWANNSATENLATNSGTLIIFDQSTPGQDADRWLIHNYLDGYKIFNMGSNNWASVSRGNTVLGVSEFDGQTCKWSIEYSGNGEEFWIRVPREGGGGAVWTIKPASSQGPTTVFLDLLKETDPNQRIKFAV
Procedure: The diphenolase activity assay was performed as previously described. First, 300 μL of 2.5 mM 3,4-dihydroxyphenylalanine (L-DOPA) solution, 50 μL of DMSO with or without a sample chemical, and 1.1 mL of 0.1 M phosphate buffer (pH 6.8) were mixed. The mixture was preincubated at 25 °C for 10 min before 50 μL of 1000 units/mL mushroom tyrosinase in aqueous solution was added, and the reaction was monitored at 475 nm. A control reaction was conducted in DMSO alone. The percentage of activity of tyrosinase was calculated as follows: 100 − [(A − B)/A × 100], where A represents the difference in the absorbance of the control sample between an incubation time of 0.5 and 1.0 min, and B represents the difference in the absorbance of the test sample over the same incubation period.
(§1) The inhibition type of NSAIDs on the monophenolase and diphenolase activity was determined by the Lineweaver-Burk plots and the inhibition constants were determined from secondary plots of the apparent Km/Vmax versus the concentration of the inhibitor.

[3] = molecular target: T1, mushroom tyrosinase; experiment: monophenolase activity assay of mushroom tyrosinase (L-tyrosine as substrate); assay type: biochemical; conditions: for effect on lag time of monophenolase activity: 0.25-1.0 mM inhibitor; for Inhibition type, monophenolase activity: Lineweaver-Burk plots; for activity at 250 µM: at 0.25 mM; for activity at 250 µM / activity at 500 µM / activity at 750 µM / activity at 1000 µM: read-out: monophenolase activity (steady-state rate) in presence of inhibitor; for activity at 500 µM: at 0.5 mM; for activity at 750 µM: at 0.75 mM; for activity at 1000 µM: at 1.0 mM; for KIS (inhibitor binding with the enzyme-substrate complex), monophenolase: secondary plot of Lineweaver-Burk slopes
Procedure: The monophenolase activity assay was performed with modification as reported by Chen et al.. In this assay, L-tyrosine was used as substrate in the monophenolase activity assay. First, 300 μL of 2.5 mM L-tyrosine, 25 μL of DMSO with or without a sample chemical, and 300 μL of 0.1 M phosphate buffer (pH 6.8) were mixed. The mixture was preincubated at 37 °C for 10 min before 125 μL of 1000 units/mL mushroom tyrosinase in aqueous solution added, and the reaction was performed at 37 °C. Enzyme activity was monitored at 475 nm by a UV spectrophotometer (Shimadzu, UV-1700). The lag time was determined by extrapolation of the linear portion of the dopachrome accumulation curve to the abscissa axis.
as §1

Compound	inhibition of diphenolase activity (in words) ([2]; L-DOPA substrate)	effect on melanogenesis [1]	effect on lag time of monophenolase activity [3]	Inhibition type, monophenolase activity [3]	activity at 250 µM [3]	activity at 500 µM [3]	activity at 750 µM [3]	activity at 1000 µM [3]	KIS (inhibitor binding with the enzyme-substrate complex), monophenolase [3]	KIS, diphenolase [2]	Inhibition type, diphenolase activity [2]	activity at 50 µM [2]	activity at 100 µM [2]	activity at 200 µM ([2]; at 0.2 mM)	activity at 500 µM [2]	activity at 1000 µM [2]	also measured
CC(=O)Oc1ccccc1C(=O)O [Acetylsalicylic acid, acetylsalicylic acid]	did not inhibit	–	–	–	–	–	–	–	–	–	–	–	–	–	–	–	effect on melanogenesis ([1]; B16F1 melanoma cells ref 23): inhibits melanogenesis; effect on tyrosinase protein expression ([1]; B16F1 melanoma cells ref 23): down-regulates; inhibition at 4000 µM ([2]; at 4 mM): -6%
O=C(O)Cc1ccccc1Nc1c(Cl)cccc1Cl [Diclofenac, diclofenac]	–	inhibit melanogenesis	–	–	–	–	–	–	–	–	–	–	–	–	–	–	inhibition at 4000 µM ([3]; at 4 mM): 25%
O=C(O)c1cc(-c2ccc(F)cc2F)ccc1O [Diflunisal, diflunisal]	–	–	extended	Non-competitive	~45%	~34%	~27%	~20%	0.11 mM	0.19 mM	Non-competitive	~77%	~63%	~49%	~32%	~20%	–
CC(C)Cc1ccc(C(C)C(=O)O)cc1 (stereo not shown) [Ibuprofen, ibuprofen]	did not inhibit	–	–	–	–	–	–	–	–	–	–	–	–	–	–	–	inhibition at 1000 µM ([2]; at 1 mM): 8%
COc1ccc2c(c1)c(CC(=O)O)c(C)n2C(=O)c1ccc(Cl)cc1 [Indomethacin, indomethacin]	–	–	did not change	Non-competitive	~84%	~72%	~66%	~60%	0.75 mM	2.42 mM	Non-competitive	~89%	~82%	~70%	~50%	~32%	IC50 of monophenolase activity relative to diphenolase activity ([3]; ratio of IC50 values): about three times larger
Cc1cccc(Nc2ccccc2C(=O)O)c1C [Mefenamic acid, mefenamic acid]	–	inhibit melanogenesis	–	–	–	–	–	–	–	–	–	–	–	–	–	–	inhibition at 1000 µM ([3]; at 1 mM): 9%; inhibition of diphenolase activity (in words) ([2]; at 0.2 mM): slightly inhibited
